Data on 23 compounds can be found in patent publication US9546173B2 (Novartis AG, priority 2012, dated 2017).

Structures are written as SMILES.

Broadly, the IC50 is the concentration that inhibits the measured activity by half.

Chain of activated ERK2 (P28482 whole entry): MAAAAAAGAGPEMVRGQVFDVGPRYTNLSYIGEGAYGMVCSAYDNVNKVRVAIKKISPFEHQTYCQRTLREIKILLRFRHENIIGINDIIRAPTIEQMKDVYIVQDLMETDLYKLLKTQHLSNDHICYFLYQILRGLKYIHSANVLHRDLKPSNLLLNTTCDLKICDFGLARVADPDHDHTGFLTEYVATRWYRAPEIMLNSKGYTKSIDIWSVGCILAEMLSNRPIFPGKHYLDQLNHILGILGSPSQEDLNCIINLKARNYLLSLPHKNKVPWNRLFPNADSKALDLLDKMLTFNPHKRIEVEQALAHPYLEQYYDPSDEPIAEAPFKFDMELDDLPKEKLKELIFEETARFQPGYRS

For this assay, the target named is activated ERK2 (Homo sapiens (Human), UniProt P28482). The experiment in a line: Activated ERK2 kinase assay (AlphaScreen, ERKtide peptide phosphorylation). The assay is classed as biochemical. Particulars: […] ERK2, 200 nM ERKtide peptide, 35 μM ATP, 30 min preincubation; read-out: ERK2 IC50. The source says:
Production of Activated ERK2 Protein:
Activated ERK2 protein was generated in insect cells by co-expression with a constitutively active form of MEK1. The ERK2 protein was expressed and purified as a nHis-PreScission-ERK2 tagged protein and then proteolytically processed to the full-length wild-type protein. […] Double-phosphorylated ERK2 protein was purified from the mixture by mono-Q column separation.
Activated ERK2 Kinase Assay:
A 16-point, half-log dilution series of compounds at 41× final concentration was used for generating IC50 curves. Compound dilution series were prepared in 100% DMSO. ERK2 was preincubated with compounds for 30 minutes at ambient temperature. Reaction was initiated by addition of a substrate cocktail of ERKtide peptide and ATP and was allowed to proceed for 2-3 hours at ambient temperature. Reaction was terminated by addition of 10 μL of a 2× stop buffer consisting of 100 mM Tris-Cl [pH 7.5], 25 mM EDTA, 0.01% Tween 20, 10 μg/mL of AlphaScreen Protein A Acceptor Beads, 10 μg/mL of Streptavidin Donor Beads (PerkinElmer, Waltham, Mass.), and 1.4 μg/mL phospho-EGF Receptor (Thr669) antibody (Cat #3056, Cell Signaling Technology, Danvers, Mass.). Terminated reactions were read, after overnight incubation in the dark, on an EnVision Multilabel Plate Reader (PerkinElmer, Waltham, Mass.), with excitation and emission wavelengths set to 680 nm and 570 nm, respectively. IC50 values were determined using a four-parameter fit.
(In general: Alpha assays give light when donor and acceptor beads are brought close together.)
In the case of `CC1(C)c2cnc(NC3CCOCC3)nc2CN1C(=O)NCc1nc2ccccc2s1` [compound 30, N-(benzo[d]thiazol-2-ylmethyl)-5,5-dimethyl-2-((tetrahydro-2H-pyran-4-yl)amino)-5H-pyrrolo[3,4-d]pyrimidine-6(7H)-carboxamide], the concentration for half-maximal inhibition (IC50) was 49 nM.

For `CC1(C)c2cnc(NC3CC3)nc2CN1C(=O)N[C@H](CO)c1ccccc1` [compound 31, (S)-2-(cyclopropylamino)-N-(2-hydroxy-1-phenylethyl)-5,5-dimethyl-5H-pyrrolo[3,4-d]pyrimidine-6(7H)-carboxamide], the IC50 was 317 nM.

For `CC1(C)c2cnc(NC3CCOCC3)nc2CN1C(=O)N[C@H](CN)c1ccccc1` [compound 32, (S)-N-(2-amino-1-phenylethyl)-5,5-dimethyl-2-((tetrahydro-2H-pyran-4-yl)amino)-5H-pyrrolo[3,4-d]pyrimidine-6(7H)-carboxamide], the concentration for half-maximal inhibition (IC50) stood at 14 nM.

As to `CC(C)[C@@H](C)NC(=O)N1Cc2nc(NC3CCOCC3)ncc2C1(C)C` [compound 33, (R)-5,5-dimethyl-N-(3-methylbutan-2-yl)-2-((tetrahydro-2H-pyran-4-yl)amino)-5H-pyrrolo[3,4-d]pyrimidine-6(7H)-carboxamide], the 50% inhibitory concentration (IC50) turned out to be 596 nM.

Consider `CC1(C)c2cnc(NC3CCOCC3)nc2CN1C(=O)NCc1cc[nH]c(=O)c1` [compound 34, 5,5-dimethyl-N-((2-oxo-1,2-dihydropyridin-4-yl)methyl)-2-((tetrahydro-2H-pyran-4-yl)amino)-5H-pyrrolo[3,4-d]pyrimidine-6(7H)-carboxamide], for which the 50% inhibitory concentration (IC50) was determined as 5440 nM.

On to `CC1(C)c2cnc(NC3CCOCC3)nc2CN1C(=O)NCc1ccc(Cl)cn1` [compound 35, N-((5-chloropyridin-2-yl)methyl)-5,5-dimethyl-2-((tetrahydro-2H-pyran-4-yl)amino)-5H-pyrrolo[3,4-d]pyrimidine-6(7H)-carboxamide], for which the half-maximal inhibitory concentration (IC50) was 106 nM.

On to `CC1(C)c2cnc(NC3CCOCC3)nc2CN1C(=O)NC1(c2ccccc2)CC1` [compound 36, 5,5-dimethyl-N-(1-phenylcyclopropyl)-2-((tetrahydro-2H-pyran-4-yl)amino)-5H-pyrrolo[3,4-d]pyrimidine-6(7H)-carboxamide], for which the IC50 was 17 nM.

`CC1(C)c2cnc(NC3CCOCC3)nc2CN1C(=O)NCC1CC1` [compound 37, N-(cyclopropylmethyl)-5,5-dimethyl-2-((tetrahydro-2H-pyran-4-yl)amino)-5H-pyrrolo[3,4-d]pyrimidine-6(7H)-carboxamide]: the IC50 is 541 nM.

Turning to `CC1(C)c2cnc(NC3CCOCC3)nc2CN1C(=O)N[C@H]1c2ccccc2C[C@H]1O` [compound 38, N-((1S,2R)-2-hydroxy-2,3-dihydro-1H-inden-1-yl)-5,5-dimethyl-2-((tetrahydro-2H-pyran-4-yl)amino)-5H-pyrrolo[3,4-d]pyrimidine-6(7H)-carboxamide], the IC50 came to 516 nM.

`CC1(C)c2cnc(NC3CCOCC3)nc2CN1C(=O)N[C@@H]1c2ccccc2C[C@@H]1O` [compound 39, N-((1R,2S)-2-hydroxy-2,3-dihydro-1H-inden-1-yl)-5,5-dimethyl-2-((tetrahydro-2H-pyran-4-yl)amino)-5H-pyrrolo[3,4-d]pyrimidine-6(7H)-carboxamide]: the concentration for half-maximal inhibition (IC50) is under 25000 nM.

As for `C[C@H](NC(=O)N1Cc2nc(NC3CCOCC3)ncc2C1(C)C)c1ccccc1` [compound 40, (S)-5,5-dimethyl-N-(1-phenylethyl)-2-((tetrahydro-2H-pyran-4-yl)amino)-5H-pyrrolo[3,4-d]pyrimidine-6(7H)-carboxamide], the concentration for half-maximal inhibition (IC50) worked out at 799 nM.

As to `CC1(C)c2cnc(NC3CCOCC3)nc2CN1C(=O)N[C@@H]1CCCN(S(=O)(=O)c2ccccc2F)C1` [compound 41, (R)-N-(1-((2-fluorophenyl)sulfonyl)piperidin-3-yl)-5,5-dimethyl-2-((tetrahydro-2H-pyran-4-yl)amino)-5H-pyrrolo[3,4-d]pyrimidine-6(7H)-carboxamide], the half-maximal inhibitory concentration (IC50) was 13 nM.

Take `CC1(C)c2cnc(NC3CCOCC3)nc2CN1C(=O)N[C@@H]1CCCN(S(=O)(=O)c2ccccc2)C1` [compound 42, (R)-5,5-dimethyl-N-(1-(phenylsulfonyl)piperidin-3-yl)-2-((tetrahydro-2H-pyran-4-yl)amino)-5H-pyrrolo[3,4-d]pyrimidine-6(7H)-carboxamide]: the IC50 was found to be 27 nM.

`CC1(C)c2cnc(NC3CCOCC3)nc2CN1C(=O)NC1(c2ccccc2)CCOCC1` [compound 44, 5,5-dimethyl-N-(4-phenyltetrahydro-2H-pyran-4-yl)-2-((tetrahydro-2H-pyran-4-yl)amino)-5H-pyrrolo[3,4-d]pyrimidine-6(7H)-carboxamide]: the 50% inhibitory concentration (IC50) came out at 2730 nM.

For the compound `Cc1cc(Nc2ncc3c(n2)CN(C(=O)N[C@H](CO)c2ccccc2)C3(C)C)ccn1` [compound 45, (S)-N-(2-hydroxy-1-phenylethyl)-5,5-dimethyl-2-((2-methylpyridin-4-yl)amino)-5H-pyrrolo[3,4-d]pyrimidine-6(7H)-carboxamide], the IC50 was 625 nM.

`CC1(C)c2cnc(NC3CCOCC3)nc2CN1C(=O)NCc1ccccc1` [compound 46, N-benzyl-5,5-dimethyl-2-((tetrahydro-2H-pyran-4-yl)amino)-5H-pyrrolo[3,4-d]pyrimidine-6(7H)-carboxamide]: the IC50 was determined as 31 nM.

For `CC1(C)c2cnc(NC3CCOCC3)nc2CN1C(=O)NCC1CCCCC1` [compound 47, N-(cyclohexylmethyl)-5,5-dimethyl-2-((tetrahydro-2H-pyran-4-yl)amino)-5H-pyrrolo[3,4-d]pyrimidine-6(7H)-carboxamide], the IC50 came out at 31 nM.

Take `CNC(=O)N1Cc2nc(NC3CCOCC3)ncc2C1(C)C` [compound 49, N,5,5-trimethyl-2-((tetrahydro-2H-pyran-4-yl)amino)-5H-pyrrolo[3,4-d]pyrimidine-6(7H)-carboxamide]: the IC50 amounted to 988 nM.

`CCNC(=O)N1Cc2nc(NC3CCOCC3)ncc2C1(C)C` [compound 50, N-ethyl-5,5-dimethyl-2-((tetrahydro-2H-pyran-4-yl)amino)-5H-pyrrolo[3,4-d]pyrimidine-6(7H)-carboxamide]: the half-inhibitory concentration (IC50) came out at 839 nM.

On to `CC(C)NC(=O)N1Cc2nc(NC3CCOCC3)ncc2C1(C)C` [compound 51, N-isopropyl-5,5-dimethyl-2-((tetrahydro-2H-pyran-4-yl)amino)-5H-pyrrolo[3,4-d]pyrimidine-6(7H)-carboxamide], for which the IC50 was found to be 938 nM.

`CC1(C)c2cnc(Nc3ccc(F)cc3)nc2CN1C(=O)N[C@H](CO)c1ccccc1` [compound 52, (S)-2-((4-fluorophenyl)amino)-N-(2-hydroxy-1-phenylethyl)-5,5-dimethyl-5H-pyrrolo[3,4-d]pyrimidine-6(7H)-carboxamide]: the half-maximal inhibitory concentration (IC50) came out at 107 nM.

As for `CC1(C)c2cnc(NCC3CC3)nc2CN1C(=O)N[C@H](CO)c1ccccc1` [compound 53, (S)-2-((cyclopropylmethyl)amino)-N-(2-hydroxy-1-phenylethyl)-5,5-dimethyl-5H-pyrrolo[3,4-d]pyrimidine-6(7H)-carboxamide], the IC50 was found to be 505 nM.

As for `CC1(C)c2cnc(NC3CC(F)(F)C3)nc2CN1C(=O)N[C@H](CO)c1ccccc1` [compound 54, (S)-2-((3,3-difluorocyclobutyl)amino)-N-(2-hydroxy-1-phenylethyl)-5,5-dimethyl-5H-pyrrolo[3,4-d]pyrimidine-6(7H)-carboxamide], the IC50 was 727 nM.
